The values below are quoted from earlier work in patent publication US6872734B2, “Use of tiagabine for treatment of diabetic neuropathy and migraine” (Abbott Laboratories, priority 2000, dated 2005).

In this data set the test system is GABA uptake. The settings on record: for inhibition of GABA uptake: according to J. Pharm. Exp. Therap., 228 (1984), 109.

For `O=C(O)C1=CCCN(CCC=C(c2ccccc2)c2ccccc2)C1` [SK&F 100330A, N-(4,4-diphenyl-3-butenyl)guvacine], the “inhibition of GABA uptake” value is “active inhibitors of GABA uptake”.
For `O=C(O)C1CCCN(CCC=C(c2ccccc2)c2cccs2)C1` (stereo not shown) [SK&F 100604J, N-(4-phenyl-4-(2-thienyl)-3-butenyl)nipecotic acid], the “inhibition of GABA uptake” value is “active inhibitors of GABA uptake”.
Take `O=C(O)C1CCCN(CCC=C(c2ccccc2)c2ccccc2)C1` (stereo not shown) [SK&F 89976A, N-(4,4-diphenyl-3 butenyl)nipecotic acid]: the “inhibition of GABA uptake” value is recorded as “active inhibitors of GABA uptake”.
With `Cc1ccsc1C(=CCCN1CCC[C@@H](C(=O)O)C1)c1sccc1C` [(R)-N-[4,4-Bis(3-methyl-2-thienyl)-3-butenyl]nipecotic acid], the “GABA uptake inhibitory properties” value (acid and salts thereof, cf. U.S. Pat. No. 5,010,090) is on record as “effective GABA uptake inhibitory compounds”.
